{
  "source": "patent US7393834B2",
  "about": "“LHRH-antagonists in the treatment of fertility disorders” (AEterna Zentaris GmbH, priority 1996, dated 2008)",
  "key": {"premature LH surge": {"test_system": "premature LH surge", "test": "Phase II clinical trial of Cetrorelix in controlled ovarian stimulation (COS/ART)", "assay_type": "in vivo, human", "conditions": "for babies born by the end of May 1996: by end of May 1996; for minimal effective dose, Dose/Day / no effect dose, Dose/Day: phase II dose finding", "description": "The results of a phase II clinical trial are shown in Table I. A total of […] patients were treated.\nDuring multiple dosing, the mean days of Cetrorelix application is 6 days. 25 babies were born by the end of May 1996 (7 following multiple doses; 18 following single/dual doses).\nThe hormone levels of luteinizing hormone (LH) (μg/l) (∘), follicular stimulating hormone (FSH) (μg/l) (+), progesterone (μg/l) (●), and oestradiol (E2) (ng/l) (▾) were measured in patient number 21L07 at time intervals one month (Nov. 10, 1995) and four consecutive days before (Dec. 05, 1995-Dec. 09, 1995) a dual dose regimen of Cetrorelix (3 mg) was administered subcutaneously on Dec. 10, 1995 and Dec. 11, 1995. The patient's LH, FSH, progesterone and oestradiol levels were measured afterward between Dec. 11, 1995 and Dec. 14, 1995 wherein ovulation in the patient was induced with human chorionic gonadotrophin (HCG) on Dec. 14, 1995. The patients LH, FSH, progesterone, and oestradiol levels were also measured after HCG treatment through ovum pick up (OPU; Dec. 16, 1995), and embryo transfer (ET) on […]. Hormone levels were also measured on the 4th and (Dec. 22, 1995) and 16th day after ET(Jan. 3,1996).\n238 patients were treated with Cetrorelix by subcutaneous injection of Cetrorelix Acetat-Lyophilisat.\n134 patients were treated with multiple doses and 104 patients with single or dual doses. The multiple doses are 0.25 mg/day or higher. […]"}, "[1]": {"test_system": "follicular growth / pituitary", "test": "Animal experiments and clinical studies with Cetrorelix in normal, unstimulated cycles", "assay_type": "in vivo", "description": "These low dosage levels present new possibilities for manipulating the time of ovulation during a normal, not exogenous gonadotropin-stimulated cycle, without affecting the viability of the growing follicle. In case of inadequate follicular growth related to treatment with LHRH-antagonists, low dose and short term administration of gonadotrophin or other trophic compounds will compensate for these effects. Subsequently, by stopping the LHRH-antagonist treatment, it is possible to let the normal ovulation occur or to induce ovulation by exogenous manipulation, if necessary. Ovulation induction was induced by the administration of standard HCG or by administration of LHRH and/or LHRH agonistic analogs. These described treatment alternatives are a departure from existing protocols, since they are possible only if preceded by treatment for LH-surge-control with an LHRH-antagonist. In animal and clinical studies with Cetrorelix it was shown that the responsiveness of the pituitary to LHRH or agonistic analogs is preserved under these conditions of treatment. Without this treatment, the pituitary cannot respond after agonistic pretreatment for LH-surge control due to receptor down-regulation. In addition, the possible use of ovulation inducing agents other than HCG results in a-reduced incidence of ovarian hyperstimulation syndrome."}, "[2]": {"test_system": "controlled ovarian stimulation (COS)", "test": "Combination of Cetrorelix, clomifen citrate and gonadotrophins for hormonal stimulation for IVF/ICSI", "assay_type": "in vivo, human", "conditions": "for fertilization rates: ICSI", "description": "Combination of the GnRH antagonist Cetrorelix, clomifen citrate(CC) and gonadotrophins for hormonal stimulation for IVF/ICSI. New controlled ovarian stimulation (COS) protocols become possible, which combine the advantages of clomifen citrate/gonadotrophin stimulation and pituitary suppression with Cetrorelix. COS was started on day 2 after spontaneous menstrual bleeding using 100 mg CC per day for 5 or 7 days. The antagonist Cetrorelix (0.25 mg s.c.) was given starting on stimulation day 6 combined with either urinary hMG or recombinant FSH (3 ampoules/d) in a prospective randomized way. After two days of gonadotrophin injection, the dose was individualized. Human chorionic gonadotropin was given for ovulation induction, if at least 3 follicles were ≧17 mm in diameter. In total, 30 patients were included in the study. 15 were randomized in each group. Intra cytoplasmatic sperm injection (ICSI) was applied in each case."}, "premature LH surges": {"test_system": "premature LH surges", "conditions": "short term treatment, first clinical trials; cited from earlier work"}, "[3]": {"conditions": "all phase II patients, both regimens"}, "[4]": {"conditions": "single patient, dual dose regimen of 3 mg s.c."}},
  "note": "“Also recorded” adds a separate entry of the source. Where a SMILES comes first, the peptide text is derived from it. [ ]: non-standard residue; d: D form. dPhe(4-Cl) = N[C@H](Cc1ccc(Cl)cc1)C(=O)O; d2Nal = N[C@H](Cc1ccc2ccccc2c1)C(=O)O; dCit = NC(=O)NCCC[C@@H](N)C(=O)O; d3Pal = N[C@H](Cc1cccnc1)C(=O)O",
  "data": [
    {"smiles": "CC(=O)N[C@H](Cc1ccc2ccccc2c1)C(=O)N[C@H](Cc1ccc(Cl)cc1)C(=O)N[C@H](Cc1cccnc1)C(=O)N[C@@H](CO)C(=O)N[C@@H](Cc1ccc(O)cc1)C(=O)N[C@H](CCCNC(N)=O)C(=O)N[C@@H](CC(C)C)C(=O)N[C@@H](CCCNC(=N)N)C(=O)N1CCC[C@H]1C(=O)N[C@H](C)C(N)=O", "note": "[Cetrorelix] (Ac-[d2Nal][dPhe(4-Cl)][d3Pal]SY[dCit]LRP[dA]-NH2)", "values": [
      {"measurement": "fertilization rates, follicle and oocytes quality", "setting": "premature LH surge; after both posologies (single and multiple dose)", "result": "good fertilization rates"},
      {"measurement": "pregnancy rates", "setting": "premature LH surge; after both treatments (single and multiple dose)", "result": "good"},
      {"measurement": "babies born by the end of May 1996", "setting": "premature LH surge; all patients", "result": 25},
      {"measurement": "pregnancies obtained (number)", "setting": "premature LH surge; [3]", "result": 71, "unit": "pregnancies"},
      {"measurement": "pregnancies obtained (rate)", "setting": "premature LH surge; [3]", "result": 30, "unit": "%"},
      {"measurement": "babies born", "setting": "premature LH surge; following multiple doses", "result": 15},
      {"measurement": "babies born by the end of May 1996", "setting": "premature LH surge; following multiple doses", "result": 7},
      {"measurement": "babies born", "setting": "premature LH surge; following single/dual doses", "result": 29},
      {"measurement": "babies born by the end of May 1996", "setting": "premature LH surge; following single/dual doses", "result": 18},
      {"measurement": "pregnancies (rate)", "setting": "premature LH surge; multiple dose regimen, 134 patients", "result": 28.4, "unit": "%"},
      {"measurement": "pregnancies (number)", "setting": "premature LH surge; multiple dose regimen, of 134 patients", "result": 38},
      {"measurement": "minimal effective dose, Dose/Day", "setting": "premature LH surge; multiple dose, 3-7/14 days", "result": "0.25 min. effect, dose mg"},
      {"measurement": "no effect dose, Dose/Day", "setting": "premature LH surge; multiple dose, 3-7/14 days", "result": 0.10, "unit": "no effect. dose mg"},
      {"measurement": "premature LH surge", "setting": "premature LH surge; patients undergoing COS/ART, multiple doses of 0.25 mg or higher or single dose of 3 mg or higher, s.c.", "result": "prevention of any premature LH surge; also recorded: No premature LH surge"},
      {"measurement": "minimal effective dose, Dose/Day", "setting": "premature LH surge; single dose (1 day)", "result": 3, "unit": "min. effective dose mg"},
      {"measurement": "no effect dose, Dose/Day", "setting": "premature LH surge; single dose (1 day)", "result": 2, "unit": "no effect. Dose mg"},
      {"measurement": "duration of effect to prevent a premature LH surge", "setting": "premature LH surge; single dose regimen, one injection of 3 mg", "result": "up to 6.5 days"},
      {"measurement": "FSH secretion (FIG. 1)", "setting": "premature LH surge; [4]", "result": "maintained at a natural level"},
      {"measurement": "individual estrogen development (FIG. 1)", "setting": "premature LH surge; [4]", "result": "not affected"},
      {"measurement": "premature LH surge (FIG. 1)", "setting": "premature LH surge; [4]", "result": "absolute prevention of any premature LH surge"},
      {"measurement": "pregnancies (rate)", "setting": "premature LH surge; single/dual dosage regimen, 104 patients", "result": 31.7, "unit": "%"},
      {"measurement": "pregnancies (number)", "setting": "premature LH surge; single/dual dosage regimen, of 104 patients", "result": 33},
      {"measurement": "normal, unstimulated follicular growth", "setting": "[1]; multiple or single injections, extremely low dosage levels", "result": "arrest of the normal, unstimulated follicular growth"},
      {"measurement": "responsiveness of the pituitary to LHRH or agonistic analogs", "setting": "[1]; under LH-surge-control treatment with the antagonist", "result": "preserved"},
      {"measurement": "ovarian hyperstimulation syndrome (OHSS)", "setting": "[2]; 30 patients, both groups", "result": "no case of OHSS was observed"},
      {"measurement": "clinical pregnancy rate/transfer", "setting": "[2]; hMG group", "result": "4/14"},
      {"measurement": "metaphase II oocytes", "setting": "[2]; hMG group", "result": 74, "unit": "%"},
      {"measurement": "oocytes per cycle retrieved", "setting": "[2]; hMG group", "result": "7.7±3.8"},
      {"measurement": "transfer rate/cycle", "setting": "[2]; hMG group", "result": 87, "unit": "%"},
      {"measurement": "fertilization rates", "setting": "[2]; hMG group", "result": 42, "unit": "%"},
      {"measurement": "clinical pregnancy rate/transfer", "setting": "[2]; recombinant FSH group", "result": "1/11"},
      {"measurement": "metaphase II oocytes", "setting": "[2]; recombinant FSH group", "result": 80, "unit": "%"},
      {"measurement": "oocytes per cycle retrieved", "setting": "[2]; recombinant FSH group", "result": "6.4±2.6"},
      {"measurement": "transfer rate/cycle", "setting": "[2]; recombinant FSH group", "result": 80, "unit": "%"},
      {"measurement": "fertilization rates", "setting": "[2]; recombinant FSH group", "result": 53, "unit": "%"},
      {"measurement": "premature LH surges during stimulated cycles", "setting": "premature LH surges", "result": "complete avoidance of premature LH surges"}
    ]}
  ]
}
